From patent publication US12491227B2, “Crila® and EGCG compositions for treatment of fibroids” (Altin Biosciences Corporation, priority 2022, dated 2025)

Assays:
[1] = target: T1, Catechol-O-methyl transferase (COMT) (Homo sapiens, UniProt P21964); conditions: cited from earlier work
T1 sequence (P21964 1-271): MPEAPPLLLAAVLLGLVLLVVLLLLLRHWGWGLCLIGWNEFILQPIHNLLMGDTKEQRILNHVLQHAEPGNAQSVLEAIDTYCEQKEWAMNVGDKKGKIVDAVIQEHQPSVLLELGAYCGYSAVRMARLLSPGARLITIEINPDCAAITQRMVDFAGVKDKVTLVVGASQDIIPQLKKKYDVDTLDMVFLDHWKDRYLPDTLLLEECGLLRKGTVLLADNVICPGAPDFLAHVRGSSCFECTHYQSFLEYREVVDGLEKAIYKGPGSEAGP

TGF-β3 = conditions: human fibroid cells; cited from earlier work
[2] = system: Human uterine leiomyoma (HuLM) cells; assay: MTT cell proliferation / viability assay in HuLM cells; assay type: cell-based; conditions: EGCG alone
Procedure: Effect of Crila® or a Crila® composition (Table 1) and/or EGCG on the Uterine Fibroid Growth: In one study, we used Human Leiomyoma (HuLM) Cells in our initial evaluation of Crila® and/or EGCG treatment. Crila®, used alone or in combination with EGCG, were evaluated for their ability to inhibit the proliferation of HuLM cells in an experimental approach as described below. Similarly, the Crila® compositions are evaluated for their ability to inhibit the proliferation of HuLM cells in an experimental approach as described below. Crila® and/or EGCG were analyzed at the various concentrations and time points specified. […] Thereafter, the extract was sterile filtered through 0.22 μm PES filter and stored at room temperature until further use. EGCG was dissolved in DMSO to make a 100 mM stock solution or in dH2O to make 10 mM stock solution. Cell proliferation assay was performed by dimethylthiazolyl diphenyltetrazolium bromide (MTT) assay. Human uterine leiomyoma (HuLM) cells were cultured in DMEM/F12 containing 10% fetal bovine serum. […] Samples were measured (from the treated wells and control wells) after 1 to 2 days, 3 days, 5 days and 7 days. […] Relative cell viability was determined by using the MTT assay. […] Absorbance was measured in Varioskan Lux microplate reader (ThermoFisher) at 570 nm. […]

BMP2 gene = conditions: EGCG-treated human fibroid cells; cited from earlier work
fibroid tumor = conditions: nude mouse model; cited from earlier work

Compound: O=C(O[C@@H]1Cc2c(O)cc(O)cc2O[C@@H]1c1cc(O)c(O)c(O)c1)c1cc(O)c(O)c(O)c1 [EGCG, epigallocatechin gallate]
- COMT inhibitor effect [1]: potent COMT inhibitor effect
- TGF-β3 production (TGF-β3): significantly decreased
- concentration from which HuLM cells viability is effectively reduced ([2]; after 5 days treatment): ≥ 50 µM
- concentration from which HuLM cells viability is effectively reduced ([2]; after 7 days treatment): ≥ 25 µM
- increase in the expression of the BMP2 gene versus untreated control (BMP2 gene): 14 fold
- fibroid tumor formation in vivo (fibroid tumor): inhibiting fibroid tumor formation
